# Assay results published in a melting point compilation (Tetko et al.; mined from patent text by program, amines drawn as free bases though some values may be those of a salt).
row,Structure (SMILES),melting point [°C]
1,O=S(=O)(c1ccccc1)N1CCC(C(NCCc2ccccc2)c2ccc(F)cc2)CC1 (centres undefined),115 to 117
2,CCCCCCCCCc1ccc(C(Sc2cccc(NC(=O)CC(=O)OC)c2)C(=O)CCCC(=O)OC)cc1 (centres undefined),88 to 91
3,CCOC(=O)c1sc2c(c1OC(C)=O)CN(Cc1ccccc1Cl)CC2,110
4,CC(C)(C)OC(=O)N1CCc2c(n(CCOc3ccccc3)c3c(Cl)cc(Cl)cc23)CC1,154 to 155
5,COc1c(C)c2c(c(OC(C)=O)c1C/C=C/c1c(C)cccc1C(=O)O)C(=O)OC2,180 to 183
6,NS(=O)(=O)c1ccc(NC(=O)Nc2ccc(I)cc2)cc1,275 to 277
7,COc1ccc(OC)c(CN[C@H]2[C@H]3CCN(C[C@@H]3C(N)=O)[C@H]2C(c2ccccc2)c2ccccc2)c1 (relative stereo),127 to 129
8,Cc1sc(C(=O)OCc2ccccc2)cc1NC(=O)Cc1ccccc1,173 to 174
9,Cc1nc2c(OCc3ccccc3F)cccn2c1CO,151 to 153
10,Cc1c(CCO)c2cc(OCc3csc(-c4ccccc4)n3)ccc2n1Cc1ccccc1,114 to 116
11,NS(=O)(=O)c1ccc(-c2cc3cccccc-3c2-c2ccccc2)cc1,169 to 170
12,CC(C)ON=Cc1nn(-c2c(Cl)cc(C(F)(F)F)cc2Cl)c(N)c1S(C)=O (centres undefined),128 to 130
13,[O-][N+]1=C(c2ccccc2Cl)c2nc(Cl)ccc2-n2cnnc2C1,242 to 244
14,C[C@@H](Nc1ncnc2[nH]c(-c3ccc(C#N)cc3)cc12)c1ccccc1,333 to 336
15,O=c1[nH][nH]c(=O)c2c(O)c3c(C(F)(F)F)cccc3nc12,180 to 182
16,COc1ccc(C(=O)C=C2c3ccccc3C(=O)c3ccccc32)cc1OC,160
17,COC(=O)C(C)(C)Oc1cc(C)c(C)c(Br)c1C,66 to 68
18,N#Cc1ccc(N2CCN(c3ccncc3)CC2)cc1,155 to 158
19,CCCCOc1ccc(C(=O)Nc2ccc3cc(CN4CCN(C)CC4)cnc3c2C)c(F)c1,155
20,Clc1ccc(-c2csc(-c3cnccc3Cl)n2)cc1,149 to 150
21,O=C(O)c1cccc(NCc2cccs2)c1C(=O)O,223 to 225
22,Oc1ccc(-c2nnc(-c3ccccc3)o2)cc1,256
23,C=CCn1c(=O)n(CC=C)c(=O)n(-c2cc(N3C(=O)C4=C(CCCC4)C3=O)c(F)cc2Cl)c1=O,80 to 85
24,COc1ccc(CCC(C)NC(Cc2ccccc2C)=NC#N)cc1 (centres undefined),103 to 104
25,CCN1C(=O)C(C)(C)C(=O)N(C)c2cc(OCCCn3c(-c4ccccc4)cc4ccccc43)ccc21,140 to 142
26,N#Cc1c(N2CCc3ccccc3CC2)ncn(CCO)c1=O,167 to 171

row,Structure (SMILES),melting point [°C]
1,COC12CC(CO)CN(C)C1CC1CNc3cccc2c31 (centres undefined),134 to 138
2,CCC(n1cncn1)C(O)(Cn1cncn1)c1ccc(Cl)cc1 (centres undefined),168 to 169
3,CCCC(C)(Oc1ccccc1C)C(=O)OC1CC(O)C=C2C=CC(C)C(CCC3CC(O)CC(=O)O3)C21 (mixture of isomers),161 to 163
4,NC(=O)c1ccc(O[C@@H]2CNC[C@H]2O)cc1 (relative stereo),202 to 203
5,Nc1ccc2c(c1)CCN(C(=O)C(F)(F)F)CC2,160 to 162
6,CC(C)C1(C)N=C(c2nc3occ([N+](=O)[O-])c3cc2C(=O)O)NC1=O (centres undefined),220 to 237
7,O=C(Nc1ccc(C(=O)N2C=C3CC=CN3Cc3ccccc32)cc1)c1ccccc1F,257 to 260
8,O=C(Nc1cccc(-c2nnn[nH]2)c1)C(=O)N1CCC(Cc2ccccc2)CC1,159 to 161
9,O=C(O)CCCCNS(=O)(=O)c1ccc(N2CCCCC2)cc1,115 to 120
10,COc1ccc(CNc2c(C)c(C)c3c(c2C)C(c2ccc(C)cc2)C(C)(C)O3)cc1 (centres undefined),97 to 98
11,O=C(c1ccncc1)N1CCN(Cc2ccc3c(c2)-c2[nH]nc(-c4ccsc4)c2C3)CC1,168 to 170
12,CS(=O)(=O)c1ccc(Cl)c(C(=O)Nc2ccc(-n3nc(C4CC4)cc3C3CC3)cc2)c1,60 to 65
13,COC(=O)CCC(C(=O)c1cccc(O)c1)c1ccccc1C (racemic),101 to 103
14,CCN(CC)c1ccc(C=O)c([N+](=O)[O-])c1,75 to 77
15,O=C1CCC(N2Cc3c(OCc4ccc(CN5CCn6nc(C(F)(F)F)nc6C5)cc4)cccc3C2=O)C(=O)N1 (centres undefined),139 to 142
16,O=C(NCCCOc1cc(CN2CCCCC2)ccn1)c1cn[nH]c1,117 to 119
17,COc1ccc(CCCCNC(=O)CCl)cc1,99 to 100
18,CC(C)N(C(=O)CC=C1CSC(N)=N1)c1ccc(Cl)cc1,145 to 147
19,O=C(O)c1cc(F)cc(-c2ccc(F)c3cc(Cc4cccc(C(F)(F)F)c4)sc23)c1,169 to 170
20,CN1CCC(O)(c2ccccc2Cc2ccccc2)C1 (centres undefined),108 to 109
21,Nc1ccc2c(C3=CN4CCC3CC4)c[nH]c2c1,65 to 67
22,O=C(C=C1SC(Nc2c(Cl)cccc2Cl)=NC1=O)NCc1ccccc1,205 to 206
23,CC#CCOc1nsc(-c2ccccc2)n1,70.3
24,COC(=O)c1ccc(-c2ccc(NC(=O)c3ccc(OC)c(C#CCN(C)C)c3)cc2)cc1,234 to 237
25,CCCCC(CNc1nc(C)c(O)c(C(C)C)n1)c1ccccc1 (centres undefined),60 to 61
26,Cc1nc(Cl)n(-c2ccccc2)n1,81 to 84

# Now from value to compound:
row,melting point [°C],Structure (SMILES)
1,209 to 211,O=C(O)c1cnn(-c2cccc(Cl)c2)c1Cl
2,126 to 127,COc1ccc(OC)c2c1CCC(C#N)C2C#N (centres undefined)
3,282 to 285,COc1cccc2c1nc(C(F)F)n2-c1nc(N2CCOCC2)nc(N2CCC(NS(=O)(=O)C(F)(F)F)CC2)n1
4,63 to 64,COC(=O)Cc1c(C)nn(-c2ccccc2)c1C
5,200 to 202,COC(=O)c1ccc(-c2nc(-c3ccc(OC)cc3)co2)cc1
6,144 to 145,COC1(c2csc(S(=O)(=O)c3ccc4c(c3)CC/C4=N\O)c2)CCOCC1
7,171 to 172,CCCCc1ccc(C(=O)N[C@H](Cc2ccc(C(F)(F)F)cc2)[C@@H](O)c2ccc(F)cc2)cc1 (racemic)
8,274 to 276,COc1cc(Cl)ccc1C(=O)NC1COCCn2c1nc(-c1ccncn1)cc2=O (racemic)
9,55 to 56,CC1CCc2cc([N+](=O)[O-])cnc2C1 (centres undefined)
10,60 to 62,BrCCc1ccc2c(c1)CCO2
11,148 to 150,O=S(=O)(NS(=O)(=O)c1ccc(CCBr)cc1)c1ccccc1
12,143 to 146,COc1ccc2nc(Nc3cc(C)cs3)[nH]c2c1
13,208 to 210,Brc1ccc(-c2nc3n(c2-c2ccc(Br)cc2)CCS3)cc1
14,137 to 138,C#CCNC(=O)C=C(C)N
15,72 to 73,OC(CCN1CCN(c2ccccn2)CC1)COc1ccc(F)cc1 (centres undefined)
16,129,O=C(O)C1=c2ccccc2=CC=C2CC=CC=C21
17,135 to 138,CCOC(=O)CCCn1c(Nc2c(C)noc2C)nc2c(Cl)ccc(C(CC)CC)c21
18,77 to 78,CCOC(=O)c1conc1-c1ccc(Cl)c(F)c1
19,147,CCOCCNc1ncc(Cc2cc(OC)c(OC)c(OC)c2)c(N)n1
20,200 to 201,CCCOc1cc(C)c(C=CC(C)=CC=CC(C)=CC(=O)OCC)c(C)c1C
21,137 to 138,CCOC(=O)c1ccc(C#Cc2ccc3c(c2)C(C)(C)CCC3(C)C)cc1
22,167 to 171,O=C(O)c1ccc(O)c(OCc2ccccc2)c1
23,158 to 161,CSc1ccc(-n2c(-c3ccccn3)nc(SC)c(C#N)c2=O)cc1
24,103 to 104,CC(C)(C)c1ccc(C2CC(=O)c3ccccc3O2)cc1 (centres undefined)

row,melting point [°C],Structure (SMILES)
1,128,FC(F)(F)c1ccc(NC2CCNCC2)nc1
2,107 to 111,CCOC(=O)N1CCN(C(=S)Cl)CC1
3,145 to 147,COC1=CC(=NC2CCCCC2)c2ccccc2C1=O
4,125 to 126,CCCOC(=O)c1cn(C2CC2)c2nc(N3CCC(N)C3)c(F)cc2c1=O (centres undefined)
5,250 to 255,O=C(NC12CC3CC(CC(C3)C1)C2)c1cc(O)c(O)cc1[N+](=O)[O-]
6,232 to 234,OC1CCCc2ccc(-c3ccc4nc(-c5ccc(Cl)cc5)cn4c3)cc21 (centres undefined)
7,173,CC1(C)CC(OC(=O)Nc2ccccc2)CC(C)(C)N1CC(OC(=O)Nc1ccccc1)c1ccccc1 (centres undefined)
8,190 to 192,O=Cc1ccc2c(n1)C(=O)C(NC(=O)CCl)=CC2=O
9,124 to 125,CC(C)CC1(CCCCCl)C(=O)Nc2ccccc21 (centres undefined)
10,233 to 235,O=C(Nc1n[nH]c(=S)s1)N[C@@H](Cc1c(F)c(F)c(F)c(F)c1F)C(=O)N1CCN(c2ccccn2)CC1
11,196 to 199,O=C(NCC(=O)N1c2ccccc2N(Cc2ccccc2)C(=O)[C@H]2CCC[C@H]21)c1ccncc1 (relative stereo)
12,164,CC(C)CC(=O)OC1(C(=O)CO)CCC2C3CC(C)C4=CC(=O)C=CC4(C)C3C(O)CC21C (centres undefined)
13,69,COc1ccc(C2CC(=O)N(C)C2)cc1OC (centres undefined)
14,202 to 203,Nc1nnc(Sc2ccccc2)s1
15,168,CCn1ncc(OCc2ccc(C(=O)c3ccc(Cl)cc3)s2)c(Cl)c1=O
16,298 to 301,Cc1cn(-c2nc(Nc3cccc(NS(C)(=O)=O)c3)nc3[nH]cnc23)cn1
17,92 to 94,CNCC#CC1=Cc2ccccc2Sc2ccc(Cl)cc21
18,266 to 268,CCc1cc(OCc2ccc(C(=O)NS(=O)(=O)c3ccccc3C)cc2)c2c(n1)CCCC2
19,90 to 91,COc1ccccc1S(=O)(=O)OC(Br)C(=O)c1ccccc1 (centres undefined)
20,215 to 216,O=C(/C=C/c1ccc(Br)cc1)Nc1ccccc1C(=O)O
21,113 to 115,Cc1ccccc1NC(=O)c1c(Br)cccc1[Si](C)(C)C
22,159 to 161,CCN1C(=O)C(C)(C)C(=O)N(C)c2cc(OCCCn3cc(-c4ccc(OC)nc4)c(=O)c4ccccc43)ccc21
23,288 to 289,COc1ccc(-c2ccc(OC)c(C34CC5CC(CC(C5)C3)C4)c2)cc1C12CC3CC(CC(C3)C1)C2
